Values quoted from earlier work, collected in patent publication US11207270B2, “Controlled release dosage forms for high dose, water soluble and hygroscopic drug substances” (priority 2010, dated 2021).

Assays:
[1] = test system: non-narcoleptic patients with fibromyalgia
[2] = test system: patients suffering from disorders of disturbed sleep, including narcolepsy; conditions: human, in vivo
[3] = test system: patients with hyperkinetic movement disorders including ethanol responsive myoclonus and essential tremor; conditions: 5 patients
[4] = given orally, in man

Row | SMILES | estimates of overall wellness ([1]; before and after treatment) | subjective assessments of levels of pain and fatigue ([1]; over all 4 weeks of treatment compared to baseline) | plasma levels (immediate release formulation, dose between about 2.25 g and 4.5 g, within 4 hours of ingestion) | Cmax/Cmin ratio (two separate immediate release doses, over a six hour period) | Stage 3-4 (slow wave) sleep [2] | nocturnal awakenings [2] | total nocturnal sleep time [2] | blinded ratings of ethanol responsive myoclonus and tremor [3] | tolerability [3] | plasma half-life [4]
1 | O=C(O)CCCO [GHB, gamma-hydroxy butyrate] | significant improvement | significant improvements | below 10 ug/mL | greater than 4 | increase | decrease | increase |  |  | 
2 | O=C([O-])CCCO.[Na+] [sodium oxybate] |  |  |  |  |  |  |  | dose-dependent improvements | tolerated at doses that provided clinical benefit | about 45 minutes
